According to US20080221205A1, “FURAN DERIVATIVES FOR PREVENTING AND CURING OSTEOPOROSIS AND PHARMACEUTICAL COMPOSITIONS CONTAINING THE SAME” (priority 2002, published 2008):

Tested on: osteoclast formation
Experiment: Inhibition rate of furan derivatives versus osteoclast formation (TRAP staining)
Type: cell-based, mice
Settings: TRAP-positive multinucleated cells, untreated control set as 100%
Method: First, bone marrow cells were isolated, as follow. After sacrificing 7-9 week female mice by cervical dislocation, femur and tibia were excised aseptically while removing attached soft tissues. After cutting both ends of long bones, 1 ml of an enzyme solution, containing 0.1% collagenase (Gibco), 0.05% trypsin and 0.5 mM EDTA (Gibco), was injected to the bone marrow cavity at one end using a syringe with a 26-guage needle, and bone marrow was then collected. After shaking the recovered bone marrow for 30 min, bone marrow cells were collected, and cultured in α-minimum essential medium (α-MEM) supplemented with 10% FBS for 24 hrs. Then, non-adherent cells were collected, which are osteoclast pregenitors, aliquotted onto culture plates at a density of 2×10^5 cells per well, and cultured for 8 days in α-MEM supplemented with 20 ng/ml of macrophage-colony stimulating factor (M-CSF, Peprotech, USA) and 30 ng/ml RANKL (Peprotech, USA). During the 8 days of culturing, the cells were treated with the Compound 1. Thereafter, osteoclast formation was investigated by fixing the cultured cells and then carrying out TRAP staining, as described in the following Experimental Example 2.2. In addition, resorption activity of osteoclasts was investigated by measuring the absorption area after removing osteoclasts in cultures in calcium phosphate-coated plates, as described in Experimental Example 2.3, below.
After cell culture, the adherent cells were washed with PBS, and TRAP staining was performed, as follows. After being fixed with citrate-acetate-formaldehyde for 5 min, the cells were incubated for 1 hr in acetate buffer (prewarmed at 37° C., pH 5.0) containing naphthol AS-BI phosphate, fast Garnet GBC and 7 mM tartrate buffer (pH 5.0). TRAP-positive multinucleated cells having 3 or more nuclei were considered as osteoclasts.
Osteoclast pregenitor cells were isolated, and their differentiation to mature osteoclasts was induced, according to the same method as in the Experimental Example 2-1, while treated with each of the furan derivatives of the present invention. According to the same method as in the Experimental Example 2-2, TRAP staining performed, and TRAP-positive multinucleated cells were counted. An inhibition rate of each furan derivative against osteoclast formation was expressed as percentage, wherein the number of stained cells in a control not treated the furan derivative was arbitrarily set as 100% (Tables 14 to 16).

Compound | Inhibition rate against osteoclast formation, % (0.1 μM) [%] | Inhibition rate against osteoclast formation, % (1 μM) [%] | Inhibition rate against osteoclast formation, % (10 μM) [%]
O=C(O)c1ccc(COc2ccccc2Br)o1 [Compound 108] | 0 | 0 | –
CC(C)(C)c1ccc(OCc2ccc(C(=O)Nc3ccccc3)o2)cc1 [Compound 136] | 0 | 0 | –
O=C(O)c1ccc(CSCc2ccccc2)o1 [Compound 120] | 0 | 0 | –
COc1ccc(NC(=O)c2ccc(COc3ccccc3Cl)o2)cc1Cl [Compound 142] | 0 | 0 | –
CC(C)(C)NC(=O)c1ccc(COCC(F)(F)F)o1 [Compound 127] | 0 | 0 | –
COc1ccc(F)c(CC(=O)OCc2ccc(C=O)o2)c1 [Compound 42] | 0 | – | –
O=Cc1ccc(COC(=O)Cc2ccccc2)o1 [Compound 32] | 0 | – | 50
COc1ccc(NC(=O)c2ccc(COc3ccc(Cl)c(C)c3)o2)cc1 [Compound 150] | 0 | 0 | –
COC(=O)c1ccc(COc2ccc(Cl)cc2[N+](=O)[O-])o1 [Compound 66] | 0 | 0 | –
COc1ccc(NC(=O)c2ccc(COc3ccc(F)cc3)o2)c([N+](=O)[O-])c1 [Compound 149] | 0 | – | –
NC(=O)c1ccc(NC(=O)c2ccc(COc3cc(Cl)ccc3Cl)o2)cc1 [Compound 148] | 0 | – | –
O=C(O)c1ccc(COc2ccc(Br)cc2)o1 [Compound 103] | 0 | 0 | –
COc1ccccc1OCc1ccc(C(=O)Oc2ccc(Cl)cc2)o1 [Compound 97] | 0 | 0 | –
O=Cc1ccc(COC(=O)Nc2ccc(Cl)c(Cl)c2)o1 [Compound 54] | 0 | 0 | 10
COc1ccccc1OCc1ccc(C(=O)Nc2ccc(C)c(C)c2)o1 [Compound 175] | 0 | 0 | –
O=C(Nc1cccc(Br)c1)c1ccc(COc2ccc(F)cc2)o1 [Compound 140] | 0 | 0 | –
CCOc1ccccc1NC(=O)c1ccc(COc2ccc(Cl)cc2[N+](=O)[O-])o1 [Compound 144] | 0 | – | –
CC1CCN(C(=O)c2ccc(COc3cc(Cl)ccc3Cl)o2)CC1 [Compound 124] | 0 | 0 | –
Cc1cc(OCc2ccc(C(=O)Nc3cccc(C)c3C)o2)ccc1Cl [Compound 172] | 0 | 0 | –
O=C(Oc1ccccc1)c1ccc(COc2ccccc2Cl)o1 [Compound 98] | 0 | 0 | –
CCC(C)NC(=O)c1ccc(COc2ccc(I)cc2)o1 (stereo not shown) [Compound 121] | 0 | 0 | –
Cc1cc(OCc2ccc(C(=O)O)o2)ccc1Cl [Compound 119] | 0 | 0 | –
O=C(c1ccc(COc2ccccc2Br)o1)N1CCCCCC1 [Compound 128] | – | 0 | –
O=C(Nc1ccc(F)cc1F)c1ccc(COc2c(F)c(F)cc(F)c2F)o1 [Compound 185] | 0 | 0 | –
Cc1ccc(F)c(NC(=O)c2ccc(COc3ccccc3[N+](=O)[O-])o2)c1 [Compound 158] | 0 | 0 | –
O=Cc1ccc(COC(=O)Cc2cccc(Cl)c2)o1 [Compound 35] | 0 | – | –

Compound | Inhibition rate against osteoclast formation, % (0.1 μM) [%] | Inhibition rate against osteoclast formation, % (1 μM) [%] | Inhibition rate against osteoclast formation, % (10 μM) [%]
COC(=O)c1ccc(CNc2ccccc2)o1 [Compound 89] | 0 | 0 | –
O=C(c1ccc(COc2cc(Cl)ccc2Cl)o1)N1CCCCCC1 [Compound 133] | 0 | 0 | 0.5
COC(=O)c1ccccc1NC(=O)c1ccc(COc2ccc(Cl)cc2Cl)o1 [Compound 167] | 0 | – | –
O=C(Nc1cc(F)ccc1F)c1ccc(COc2cccc(Cl)c2)o1 [Compound 151] | 0 | 0 | –
O=C(O)c1ccc(COc2ccccc2Cl)o1 [Compound 107] | 0 | 0 | 32
CC(C)OC(=O)c1ccc(COc2cc(Cl)ccc2Cl)o1 [Compound 95] | 0 | 0 | 0.97
CC(C)c1ccc(OCc2ccc(C(=O)O)o2)cc1 [Compound 114] | 0 | 0 | 4.2
O=Cc1ccc(COC(=O)C(c2ccccc2)(c2ccccc2)c2ccccc2)o1 [Compound 40] | 0 | – | –
COC(=O)c1ccc(CNC(C)(C)C)o1 [Compound 91] | 0 | 0 | –
O=Cc1ccc(COC(=O)Cc2c(F)cccc2Cl)o1 [Compound 34] | 0 | – | –
O=C(Nc1ccc(F)c(F)c1)c1ccc(COc2ccc(I)cc2)o1 [Compound 143] | 0 | 0 | –
O=C(Nc1ccccc1[N+](=O)[O-])c1ccc(COc2ccccc2Cl)o1 [Compound 183] | 0 | 0 | –
COC(=O)c1ccccc1NC(=O)c1ccc(COc2ccc(C)c(C)c2)o1 [Compound 180] | 0 | 0 | –
Cc1cc(OCc2ccc(C(=O)N3CCOCC3)o2)ccc1Cl [Compound 132] | 0 | 0 | –
COC(=O)c1ccc(COc2cc(C)ccc2C(C)C)o1 [Compound 68] | 0 | 0 | 5.62
COc1ccccc1NC(=O)c1ccc(COc2ccccc2OC)o1 [Compound 166] | 0 | 0 | –
Cc1ccc(F)c(NC(=O)c2ccc(COc3ccc(C)cc3[N+](=O)[O-])o2)c1 [Compound 155] | 0 | 0 | –
COC(=O)c1ccc(COc2ccc(Cl)cc2Cl)o1 [Compound 60] | 0 | 0 | –
O=C(O)c1ccc(COc2cccc3ccccc23)o1 [Compound 117] | 0 | 0 | –
CCN(CC)C(=O)c1ccc(COc2ccc(Cl)c(C)c2)o1 [Compound 123] | 0 | 6.9 | 100
C=CCc1ccc(OCc2ccc(C(=O)OC)o2)c(OC)c1 [Compound 59] | 0 | 0 | –
O=C(Nc1ccccc1)c1ccc(COc2ccc3ccccc3c2)o1 [Compound 137] | 0 | 0 | –
O=C(Nc1ccccc1F)c1ccc(COc2ccc(Cl)cc2)o1 [Compound 178] | 0 | 0 | –
CCc1cccc(NC(=O)c2ccc(COc3ccc(F)cc3)o2)c1 [Compound 163] | 0 | 0 | –
COc1ccc(NC(=O)c2ccc(COc3ccccc3Br)o2)c(OC)c1 [Compound 188] | 0 | 0 | 7.6
O=C(O)c1ccc(COc2cccc(Cl)c2)o1 [Compound 112] | 0 | 0 | –
